Patent US11679107B2 (Eisai R&D Management Co., Ltd., priority 2018, dated 2023)
Like-named read-outs stand apart in the source and are kept apart here.

What was measured:
SF3b complexes = molecular target: T1, SF3b complexes (Homo sapiens, UniProt O75533+Q7RTV0); assay: Scintillation proximity assay (SPA) with [3H]-labelled pladienolide probe; format: binding; details: SF3B1 (WT); geometric mean; read-out: SPA-ATS GMean IC50 (nM) SF3B1 (WT)
T1 construct: endogenous in cells; host or cells: Nuclear extracts; A HeLa S3 extract preparation is described for the in vitro splicing assay
Outline: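 SF3b complexes captured from nuclear extracts on anti-SF3B1 antibody SPA beads; test compounds pre-incubated 30 min before 2.5 nM [3H]-pladienolide probe added, then 30 min incubation. Bound probe read by scintillation; values from non-linear regression of concentration–response curves.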

[1] = test system: Ad2 variant pre-mRNAs spliced in HeLa S3 nuclear extracts; assay: In vitro splicing assay (IVS), RT-qPCR of spliced product; format: biochemical; details: for IC50: geometric mean; for Ratio Ad2.1/2.2: ratio of IVS IC50 Ad2.1 to Ad2.2
Outline: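 Read-out is one-step TaqMan RT-qPCR of spliced Ad2 mRNA with Ftz as reference, normalized to DMSO and fit by non-linear regression. Reactions held HeLa S3 nuclear extract, 2 ng Ad2-derived pre-mRNA and test compound, with 15 min preincubation. Splicing was started with ATP-containing activation buffer and run 90 min at 30 °C.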

[2] = test system: NCI-H1568 cells (high MCL1); assay: Cell proliferation and viability, CellTiter-Glo, 72 hours; format: cell-based; details: for GI50: geometric mean
Outline: (§1)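 ATP luminescence (CellTiter-Glo) was measured 72 h after treatment with compound at 10 μM–100 pM (11 points, half-log) in 0.1% DMSO. The Panc line was grown in RPMI-1640 plus insulin and 15% FBS, the other in 10% FBS. Data were normalised to time zero and vehicle controls, where −100% is cidal and 0% static.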

[3] = test system: Panc 05.04 cells (SF3b K700E mutant); assay: as above; format: cell-based; details: for GI50: geometric mean
Outline: as §1

[4] = Ad2.1 pre-mRNA substrate, read-out: qPCR-IVS-ATS GMean IC50 (nM) Ad2.1
[5] = Ad2.2 pre-mRNA substrate, read-out: qPCR-IVS-ATS GMean IC50 (nM) Ad2.2
[6] = NCI-H1568, read-out: CTGlo-ATS GMean GI50 (nM) 72 h NCIH1568.1, NCIH1568.1 cells, 72 h
[7] = NCIH1568.1 cells, 72 h, −100% cidal, 0% static, 100% maximal growth
[8] = PANC0504.1 cells, 72 h, −100% cidal, 0% static, 100% maximal growth
[9] = Panc 05.04, read-out: CTGlo-ATS GMean GI50 (nM) 72 h PANC0504.1, PANC0504.1 cells, 72 h
[10] = 72 h, NCIH1568.1, -100% = cidal, 0% = static, 100% = uninhibited growth
[11] = NCI-H1568, read-out: CTGlo-ATS GMean GI50 (nM) 72 h NCIH1568.1, 72 h, NCIH1568.1
[12] = 72 h, PANC0504.1, -100% = cidal, 0% = static, 100% = uninhibited growth
[13] = Panc 05.04, read-out: CTGlo-ATS GMean GI50 (nM) 72 h PANC0504.1, 72 h, PANC0504.1

C/C(=C\c1cc(F)cc(N2CC3CCC(C2)O3)c1)[C@H]1OC(=O)C[C@H](O)CC[C@H](C)[C@@H](OC(=O)N2CCN(C)CC2)/C=C/[C@@H]1C [Compound 32]
IC50 (SF3b complexes): 3.24 nM | IC50 [1, 4]: 19.5 nM | IC50 [1, 5]: 16.2 nM | GI50 [2, 6]: 10 nM | CTGlo-ATS Mean MinResponse % 72 h NCIH1568.1 [2, 7]: −74.701% | CTGlo-ATS Mean MinResponse % 72 h PANC0504.1 [3, 8]: −69.289% | GI50 [3, 9]: 6.53 nM

C/C(=C\c1cc(F)cc(N2CCOC[C@@H]2C)c1)[C@H]1OC(=O)C[C@H](O)CC[C@H](C)[C@@H](OC(=O)N2CCN(C)CC2)/C=C/[C@@H]1C [Compound 83]
IC50 (SF3b complexes): 4.57 nM | IC50 [1, 4]: 159 nM | IC50 [1, 5]: 49 nM | GI50 [2, 6]: 17.3 nM | CTGlo-ATS Mean MinResponse % 72 h NCIH1568.1 [2, 7]: −68.447% | CTGlo-ATS Mean MinResponse % 72 h PANC0504.1 [3, 8]: −94.723% | GI50 [3, 9]: 15.6 nM

C/C(=C\c1cc(F)cc(N2CCOCC2)c1)[C@H]1OC(=O)C[C@H](O)CC[C@@](C)(O)[C@@H](OC(=O)N2CCN(C)CC2)/C=C/[C@@H]1C [Compound 61]
IC50 (SF3b complexes): 13.5 nM | IC50 [1, 4]: > 25000 nM | IC50 [1, 5]: 114 nM | GI50 ([2]; NCI-H1568, 72 h, read-out: CTGlo-ATS GMean GI50 (nM) 72 h NCIH1568.1, NCIH1568.1 cells, 72 h): 46.8 nM | CTGlo-ATS Mean MinResponse % 72 h NCIH1568.1 [2, 7]: −38.996% | CTGlo-ATS Mean MinResponse % 72 h PANC0504.1 [3, 8]: −93.599% | GI50 ([3]; Panc 05.04, 72 h, read-out: CTGlo-ATS GMean GI50 (nM) 72 h PANC0504.1, PANC0504.1 cells, 72 h): 42 nM

C/C(=C\c1cc(F)cc(N2CCN(C(=O)CO)CC2)c1)[C@H]1OC(=O)C[C@H](O)CC[C@H](C)[C@@H](OC(=O)N2CCN(C)CC2)/C=C/[C@@H]1C [Compound 135]
IC50 (SF3b complexes): 3.67 nM | IC50 [1, 4]: 14.9 nM | IC50 [1, 5]: 14.9 nM | GI50 [2, 6]: 2.41 nM | CTGlo-ATS Mean MinResponse % 72 h NCIH1568.1 [2, 7]: −84.225% | CTGlo-ATS Mean MinResponse % 72 h PANC0504.1 [3, 8]: −90.575% | GI50 [3, 9]: 2.46 nM

C/C(=C\c1cccc(NS(=O)(=O)C2CC2)c1)[C@H]1OC(=O)C[C@H](O)CC[C@H](C)[C@@H](OC(=O)N2CCN(C)CC2)/C=C/[C@@H]1C [Compound 216, [(2S,3S,4E,6R,7S,10R)-2-[(E)-1-[3-(cyclopropylsulfonylamino)phenyl]prop-1-en-2-yl]-10-hydroxy-3,7-dimethyl-12-oxo-1-oxacyclododec-4-en-6-yl] 4-methylpiperazine-1-carboxylate]
IC50 (SF3b complexes): 3.32 nM | IC50 [1, 4]: 11100 nM | IC50 [1, 5]: 35.7 nM | Ratio Ad2.1/2.2 [1]: 309.648 | CTGlo-ATS Mean MinResponse % 72 h NCIH1568.1 [2, 10]: −32.014% | GI50 [2, 11]: 47.2 nM | CTGlo-ATS Mean MinResponse % 72 h PANC0504.1 [3, 12]: −85.005% | GI50 [3, 13]: 29 nM

C/C(=C\c1cccc(S(=O)(=O)C2CC2)c1)[C@H]1OC(=O)C[C@H](O)CC[C@H](C)[C@@H](OC(=O)N2CCN(C)CC2)/C=C/[C@@H]1C [Compound 215, [(2S,3S,4E,6R,7S,10R)-2-[(E)-1-(3-cyclopropylsulfonylphenyl)prop-1-en-2-yl]-10-hydroxy-3,7-dimethyl-12-oxo-1-oxacyclododec-4-en-6-yl] 4-methylpiperazine-1-carboxylate]
IC50 (SF3b complexes): 6.83 nM | IC50 [1, 4]: 20500 nM | IC50 [1, 5]: 50.7 nM | Ratio Ad2.1/2.2 [1]: 403.817 | CTGlo-ATS Mean MinResponse % 72 h NCIH1568.1 [2, 10]: −42.412% | GI50 ([2]; NCI-H1568, 72 h, read-out: CTGlo-ATS GMean GI50 (nM) 72 h NCIH1568.1, 72 h, NCIH1568.1): 25 nM | CTGlo-ATS Mean MinResponse % 72 h PANC0504.1 [3, 12]: −81.853% | GI50 ([3]; Panc 05.04, 72 h, read-out: CTGlo-ATS GMean GI50 (nM) 72 h PANC0504.1, 72 h, PANC0504.1): 20 nM

C=CS(=O)(=O)N1CCN(c2cc(F)cc(/C=C(\C)[C@H]3OC(=O)C[C@H](O)CC[C@H](C)[C@@H](OC(=O)N4CCN(C)CC4)/C=C/[C@@H]3C)c2)CC1 [Compound 74]
IC50 (SF3b complexes): 4.88 nM | IC50 [1, 4]: 34.5 nM | IC50 [1, 5]: 20.8 nM | GI50 [2, 6]: 4.69 nM | CTGlo-ATS Mean MinResponse % 72 h NCIH1568.1 [2, 7]: −99.528% | CTGlo-ATS Mean MinResponse % 72 h PANC0504.1 [3, 8]: −64.747% | GI50 [3, 9]: 13.1 nM

C/C(=C\c1ccc(C)c2[nH]ncc12)[C@H]1OC(=O)C[C@H](O)CC[C@H](C)[C@@H](OC(=O)N2CCN(C)CC2)/C=C/[C@@H]1C [Compound 89, [(2S,3S,4E,6R,7S,10R)-10-hydroxy-3,7-dimethyl-2-[(E)-1-(7-methyl-1H-indazol-4-yl)prop-1-en-2-yl]-12-oxo-1-oxacyclododec-4-en-6-yl] 4-methylpiperazine-1-carboxylate]
IC50 (SF3b complexes): 3.25 nM | IC50 [1, 4]: 24700 nM | IC50 [1, 5]: 95.4 nM | GI50 [2, 6]: 219 nM | CTGlo-ATS Mean MinResponse % 72 h NCIH1568.1 [2, 7]: −22.815% | CTGlo-ATS Mean MinResponse % 72 h PANC0504.1 [3, 8]: −16.694% | GI50 [3, 9]: 109 nM

C/C(=C\c1cc(F)cc(N2CCN(CCO)CC2)c1)[C@H]1OC(=O)C[C@H](O)CC[C@H](C)[C@@H](OC(=O)N2CCN(C)CC2)/C=C/[C@@H]1C [Compound 12]
IC50 (SF3b complexes): 4.88 nM | IC50 [1, 4]: 14.7 nM | IC50 [1, 5]: 13.5 nM | GI50 [2, 6]: 3.64 nM | CTGlo-ATS Mean MinResponse % 72 h NCIH1568.1 [2, 7]: −92.161% | CTGlo-ATS Mean MinResponse % 72 h PANC0504.1 [3, 8]: −73.954% | GI50 [3, 9]: 7.55 nM

C/C(=C\c1cccc(N(C)C2CCOCC2)c1)[C@H]1OC(=O)C[C@H](O)CC[C@H](C)[C@@H](OC(=O)N2CCN(C)CC2)/C=C/[C@@H]1C [Compound 170]
IC50 (SF3b complexes): 4.93 nM | IC50 [1, 4]: 11000 nM | IC50 [1, 5]: 31 nM | GI50 [2, 6]: 25.9 nM | CTGlo-ATS Mean MinResponse % 72 h NCIH1568.1 [2, 7]: −56.895% | CTGlo-ATS Mean MinResponse % 72 h PANC0504.1 [3, 8]: −96.570% | GI50 [3, 9]: 23.2 nM

C/C(=C\c1cc(F)cc(N2CCOCC2)c1)[C@H]1OC(=O)C[C@H](O)CC[C@H](C)[C@@H](OC(=O)NCCN(C)C)/C=C/[C@@H]1C [Compound 242, [(2S,3S,4E,6R,7S,10R)-2-[(E)-1-(3-fluoro-5-morpholin-4-ylphenyl)prop-1-en-2-yl]-10-hydroxy-3,7-dimethyl-12-oxo-1-oxacyclododec-4-en-6-yl] N-[2-(dimethylamino)ethyl]carbamate]
IC50 (SF3b complexes): 15.3 nM | IC50 [1, 4]: 7150 nM | IC50 [1, 5]: 62.1 nM | Ratio Ad2.1/2.2 [1]: 115.051 | CTGlo-ATS Mean MinResponse % 72 h NCIH1568.1 [2, 10]: −65.744% | GI50 [2, 11]: 180 nM | CTGlo-ATS Mean MinResponse % 72 h PANC0504.1 [3, 12]: −92.786% | GI50 [3, 13]: 68.9 nM

C/C(=C\c1cnn(C2CCN(C)CC2)c1)[C@H]1OC(=O)C[C@H](O)CC[C@H](C)[C@@H](OC(=O)N2CCN(C)CC2)/C=C/[C@@H]1C [Compound 106]
IC50 (SF3b complexes): 146 nM | IC50 [1, 4]: 21300 nM | IC50 [1, 5]: 556 nM | GI50 [2, 6]: 9020 nM | CTGlo-ATS Mean MinResponse % 72 h NCIH1568.1 [2, 7]: 49.516% | CTGlo-ATS Mean MinResponse % 72 h PANC0504.1 [3, 8]: 25.144% | GI50 [3, 9]: 1950 nM
